Our source for the MIC values is DBAASP.

Test systems include Escherichia coli UB1005; Bacillus subtilis; Candida albicans; Cryptococcus neoformans; Escherichia coli; Pseudomonas putida; Saccharomyces cerevisiae; Salmonella typhimurium; Serratia marcescens; Staphylococcus aureus; Streptococcus mutans; Streptococcus pneumoniae; Aerococcus viridans; Bacillus megaterium; Micrococcus luteus.
What all share (experiment): ≥ marks a high value that may be exact or a test limit, other limits are often not marked, values filed in µg/mL are converted to µM
The test system of experiment [1] is Bacillus subtilis CMCC 63501.
The test system of experiment [2] is Enterococcus faecalis ATCC 29212.
For experiment [3], the system named is Escherichia coli ATCC 25922.
The test system of experiment [4] is Pseudomonas aeruginosa ATCC 27853.
Experiment [5] deals with Pseudomonas aeruginosa PAO1.
For experiment [6], the system named is Salmonella enterica subsp. enterica serovar Typhimurium ATCC 14028.
For experiment [7], the system named is Salmonella typhimurium ATCC 7731.
In experiment [8] the test system is Staphylococcus aureus ATCC 29213.
For experiment [9], the system named is Staphylococcus epidermidis ATCC 12228.

SMILES strings stand for the structures. In brackets after ≈: the same amount, converted by molar mass.

On to `CC[C@H](C)[C@H](NC(=O)[C@H](CCC(=O)O)NC(=O)CNC(=O)[C@@H](NC(=O)[C@H](Cc1ccccc1)NC(=O)[C@H](C)NC(=O)[C@H](CCCCN)NC(=O)CNC(=O)[C@H](Cc1ccccc1)NC(=O)[C@H](CCCCN)NC(=O)[C@H](CCCCN)NC(=O)[C@H](C)N)C(C)C)C(=O)N[C@@H](CCSC)C(N)=O` [AKKFGKAFVGEIM], for which the MIC (as a rule, the least concentration at which growth counts as inhibited) in experiment [1] is ≥ 64 µM; in experiment [2] it was > 64 µM; in experiment [3] it was 32 µM (≈ 45.6 µg/mL); in the experiment on Escherichia coli UB1005 it was ≥ 64 µM; in [4], > 64 µM; in experiment [5], > 64 µM. Besides, the MIC in experiment [6] is > 64 µM; in [7], ≥ 64 µM; in [8], > 64 µM; in experiment [9], > 64 µM.
In the case of `CC(C)C[C@H](NC(=O)CN)C(=O)N[C@@H](CCC(N)=O)C(=O)N[C@@H](Cc1ccccc1)C(=O)N1CCC[C@H]1C(=O)N[C@H](C(=O)NCC(=O)N[C@@H](CCCN=C(N)N)C(=O)N[C@H](C(=O)N[C@@H](Cc1cnc[nH]1)C(=O)N[C@@H](CCCN=C(N)N)C(=O)N[C@@H](CC(C)C)C(=O)N[C@@H](CC(C)C)C(=O)N[C@@H](CCCN=C(N)N)C(=O)N[C@@H](CCCCN)C(=O)O)C(C)C)C(C)C` [GLQFPVGRVHRLLRK], the minimal inhibitory concentration (MIC) stood at 2.25 µM (≈ 4 µg/mL) in the experiment with Bacillus subtilis; 4.5 µM (≈ 8 µg/mL) in the experiment with Candida albicans; 4.5 µM (≈ 8 µg/mL) in the experiment with Cryptococcus neoformans; 2.25 µM (≈ 4 µg/mL) with Escherichia coli; 2.25 µM (≈ 4 µg/mL) in the experiment with Pseudomonas putida; 4.5 µM (≈ 8 µg/mL) in the experiment with Saccharomyces cerevisiae. For the same compound, the MIC stood at 1.13 µM (≈ 2 µg/mL) in the experiment with Salmonella typhimurium; 1.13 µM (≈ 2 µg/mL) against Serratia marcescens; 4.5 µM (≈ 8 µg/mL) with Staphylococcus aureus; 2.25 µM (≈ 4 µg/mL) against Streptococcus mutans; 2.25 µM (≈ 4 µg/mL) in the experiment with Streptococcus pneumoniae.
In the case of `CC[C@H](C)[C@H](NC(=O)[C@H](C)NC(=O)[C@@H](NC(=O)[C@@H]1CCCN1C(=O)[C@@H](NC(=O)[C@H](CC(C)C)NC(=O)[C@@H]1CCCN1C(=O)[C@H](Cc1c[nH]c2ccccc12)NC(=O)[C@H](Cc1ccccc1)NC(=O)[C@H](CCCN=C(N)N)NC(=O)[C@@H](N)CCCCN)C(C)C)C(C)C)C(=O)N[C@@H](CC(N)=O)C(=O)N[C@H](C(=O)N[C@H](C(=O)N[C@@H](C)C(N)=O)C(C)C)[C@@H](C)O` [KRFWPLVPVAINTVA], the MIC is ≥ 128 µM in [1]; > 128 µM in [3]; ≥ 64 µM in the experiment with Escherichia coli UB1005; > 128 µM in [4]; > 128 µM in [6]; ≥ 128 µM in experiment [7]. In addition, the results for the MIC in [8] and in experiment [9] were > 128 µM and 128 µM (≈ 219 µg/mL), respectively.
As for `CC[C@H](C)[C@H](NC(=O)CNC(=O)CNC(=O)[C@@H](NC(=O)[C@@H]1CCCN1C(=O)[C@H](Cc1ccccc1)NC(=O)[C@H](CCC(N)=O)NC(=O)[C@H](CC(C)C)NC(=O)CNC(=O)[C@H](C)NC(=O)[C@@H](N)CCCN=C(N)N)C(C)C)C(=O)NCC(=O)N[C@@H](CCCCN)C(=O)N[C@@H](Cc1ccccc1)C(=O)N[C@@H](CC(C)C)C(=O)N[C@@H](Cc1cnc[nH]1)C(=O)N[C@@H](CO)C(=O)N[C@@H](C)C(=O)N[C@@H](CCCCN)C(=O)N[C@@H](CCCCN)C(=O)N[C@@H](Cc1ccccc1)C(=O)NCC(=O)N[C@@H](CCCCN)C(=O)O` [RAGLQFPVGGIGKFLHSAKKFGK], the MIC with Bacillus subtilis worked out at 6.55 µM (≈ 16 µg/mL); against Candida albicans, 1.64 µM (≈ 4 µg/mL); with Cryptococcus neoformans, 1.64 µM (≈ 4 µg/mL); with Escherichia coli it was 6.55 µM (≈ 16 µg/mL); in the experiment on Pseudomonas putida, 13.1 µM (≈ 32 µg/mL); against Saccharomyces cerevisiae it was 1.64 µM (≈ 4 µg/mL). Further, the MIC in the experiment with Salmonella typhimurium amounted to 3.27 µM (≈ 8 µg/mL); in the experiment on Serratia marcescens it was 6.55 µM (≈ 16 µg/mL); against Staphylococcus aureus, 6.55 µM (≈ 16 µg/mL); in the experiment on Streptococcus mutans, 6.55 µM (≈ 16 µg/mL); against Streptococcus pneumoniae, 6.55 µM (≈ 16 µg/mL).
`CSCC[C@H](NC(=O)[C@H](CCCN=C(N)N)NC(=O)[C@H](CCC(N)=O)NC(=O)[C@@H]1CSSC[C@H](NC(=O)[C@@H](N)Cc2ccc(O)cc2)C(=O)N[C@@H](CC(N)=O)C(=O)N[C@@H](CCCN=C(N)N)C(=O)N[C@@H](CCCN=C(N)N)C(=O)N[C@@H]([C@@H](C)O)C(=O)NCC(=O)N[C@@H](CCCCN)C(=O)N1)C(=O)O` [YCNRRTGKCQRM]: the MIC in the experiment on Aerococcus viridans, against Bacillus megaterium and in the experiment on Micrococcus luteus was 28.3 µM (≈ 42.8 µg/mL) in each case.
